Test results published in PubChem BioAssay AID256 (DTP/NCI, 2004).
“And” between values parts separate entries of the source, which are not always exact repeats. Equal entries are not always repeated. Toxic doses and inconclusive results are not listed. The calls were made as follows: active = survival T/C of 150% or more; inactive = T/C below 125% in these data.

Test system: CD2F1 mice, L1210 leukemia ip, survival T/C
Assay: NCI In Vivo Anticancer Drug Screen. Data for tumor model L1210 Leukemia (intraperitoneal) in CD2F1 (CDF1) mice
Details: higher = longer survival
Outline: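 Each value reflects a quotient of treated over vehicle control outcomes in mice with a transplanted tumor.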

[1] = endpoint: mean survival time, dose: 100.0 mg/kg/injection, schedule: Q04DX003 (ip), vehicle: saline with Tween-80

Measured: T/C

CC(=O)OC1CC2CC1C1C=CCC21 (stereo not drawn)
inactive: endpoint: mean survival time, dose: 100.0 mg/kg/injection, schedule: Q01DX001 (ip), vehicle: saline with Tween-80 97 % of control | endpoint: mean survival time, dose: 200.0 mg/kg/injection, schedule: Q01DX001 (ip), vehicle: saline with Tween-80 95 % of control | endpoint: mean survival time, dose: 400.0 mg/kg/injection, schedule: Q01DX001 (ip), vehicle: saline with Tween-80 100 % of control

COc1ccccc1C(=Nc1ccccc1)N(O)c1ccccc1
inactive: endpoint: mean survival time, dose: 2.5 mg/kg/injection, schedule: Q01DX001 (ip), vehicle: saline with Tween-80 114 % of control | endpoint: mean survival time, dose: 2.5 mg/kg/injection, schedule: Q04DX003 (ip), vehicle: saline with Tween-80 101 % of control | endpoint: mean survival time, dose: 5.0 mg/kg/injection, schedule: Q01DX001 (ip), vehicle: saline with Tween-80 112 % of control | endpoint: mean survival time, dose: 5.0 mg/kg/injection, schedule: Q04DX003 (ip), vehicle: saline with Tween-80 101 % of control | endpoint: mean survival time, dose: 10.0 mg/kg/injection, schedule: Q01DX001 (ip), vehicle: saline with Tween-80 114 % of control | endpoint: mean survival time, dose: 10.0 mg/kg/injection, schedule: Q04DX003 (ip), vehicle: saline with Tween-80 98 % of control

CC(c1ccccc1)c1ccc(O)cc1 (stereo not drawn)
inactive: [1] 103 % of control | endpoint: mean survival time, dose: 200.0 mg/kg/injection, schedule: Q04DX003 (ip), vehicle: saline with Tween-80 93 % of control | endpoint: mean survival time, dose: 400.0 mg/kg/injection, schedule: Q04DX003 (ip), vehicle: saline with Tween-80 91 % of control

Nc1ncnc2c1ncn2C1OC(C(N)C(=O)O)C(O)C1O (stereo not drawn)
inactive: endpoint: mean survival time, dose: 6.25 mg/kg/injection, schedule: Q01DX005 (ip), vehicle: distilled water + Tween-80 101 % of control | endpoint: mean survival time, dose: 12.5 mg/kg/injection, schedule: Q01DX005 (ip), vehicle: distilled water + Tween-80 96 % of control | endpoint: mean survival time, dose: 25.0 mg/kg/injection, schedule: Q01DX005 (ip), vehicle: distilled water + Tween-80 98 % of control | endpoint: mean survival time, dose: 50.0 mg/kg/injection, schedule: Q01DX005 (ip), vehicle: distilled water + Tween-80 98 % of control | endpoint: mean survival time, dose: 100.0 mg/kg/injection, schedule: Q01DX005 (ip), vehicle: distilled water + Tween-80 103 % of control

Cc1cnc(/C=N\NC(N)=S)c2cccc(N)c12
active: endpoint: mean survival time, dose: 8.0 mg/kg/injection, schedule: Q03HX024 (ip), vehicle: Klucel (hydroxypropylcellulose) (HPC) 151 % of control | endpoint: mean survival time, dose: 25.0 mg/kg/injection, schedule: Q01DX009 (ip), vehicle: Klucel (hydroxypropylcellulose) (HPC) 168 % of control
inactive: endpoint: mean survival time, dose: 3.13 mg/kg/injection, schedule: Q01DX009 (ip), vehicle: Klucel (hydroxypropylcellulose) (HPC) 124 % of control | endpoint: mean survival time, dose: 3.13 mg/kg/injection, schedule: Q01DX009 (ip), vehicle: saline with Tween-80 122 % of control | endpoint: mean survival time, dose: 5.4 mg/kg/injection, schedule: Q03HX024 (ip), vehicle: Klucel (hydroxypropylcellulose) (HPC) 123 % of control | endpoint: mean survival time, dose: 12.0 mg/kg/injection, schedule: Q03HX024 (ip), vehicle: Klucel (hydroxypropylcellulose) (HPC) 112 % of control | endpoint: mean survival time, dose: 50.0 mg/kg/injection, schedule: Q01DX009 (ip), vehicle: Klucel (hydroxypropylcellulose) (HPC) 89 % of control | endpoint: median survival time, dose: 3.89 mg/kg/injection, schedule: Q01DX005 (ip), vehicle: other 114 % of control | endpoint: median survival time, dose: 6.48 mg/kg/injection, schedule: Q01DX005 (ip), vehicle: other 122 % of control

CCOC(=O)Nc1cc2c(ncn2-c2ccccc2)c(N)n1
inactive: endpoint: mean survival time, dose: 100.0 mg/kg/injection, schedule: Q01DX001 (ip), vehicle: Klucel (hydroxypropylcellulose) (HPC) 98 % of control | endpoint: mean survival time, dose: 200.0 mg/kg/injection, schedule: Q01DX001 (ip), vehicle: Klucel (hydroxypropylcellulose) (HPC) 96 % of control

COc1cc2cc3c4cc5c(cc4cc[n+]3c(C)c2cc1OC)OCO5 (tested in a mixture with another compound)
inactive: endpoint: mean survival time, dose: 25.0 mg/kg/injection, schedule: Q04DX003 (ip), vehicle: saline 122 % of control | endpoint: mean survival time, dose: 50.0 mg/kg/injection, schedule: Q04DX003 (ip), vehicle: saline 122 % of control | [1] 92 % of control | endpoint: mean survival time, dose: 100.0 mg/kg/injection, schedule: Q04DX003 (ip), vehicle: saline 118 % of control

COc1cc(OC)c(NC(=O)OCCOc2ccc([N+](=O)[O-])cc2)cc1Cl
inactive: endpoint: mean survival time, dose: 50.0 mg/kg/injection, schedule: Q01DX009 (ip), vehicle: saline with Tween-80 90 % of control | endpoint: mean survival time, dose: 100.0 mg/kg/injection, schedule: Q01DX009 (ip), vehicle: saline with Tween-80 86 % of control | endpoint: mean survival time, dose: 200.0 mg/kg/injection, schedule: Q01DX009 (ip), vehicle: saline with Tween-80 97 % of control

CN(C)CCCOc1nc2c(c(=O)n(C)c(=O)n2C)n1C (tested in a mixture with another compound)
inactive: endpoint: median survival time, dose: 6.25 mg/kg/injection, schedule: Q01DX009 (ip), vehicle: Klucel (hydroxypropylcellulose) (HPC) 111 % of control | endpoint: median survival time, dose: 12.5 mg/kg/injection, schedule: Q01DX009 (ip), vehicle: Klucel (hydroxypropylcellulose) (HPC) 116 % of control and 117 % of control
active: endpoint: median survival time, dose: 50.0 mg/kg/injection, schedule: Q01DX009 (ip), vehicle: Klucel (hydroxypropylcellulose) (HPC) 154 % of control and 176 % of control | endpoint: median survival time, dose: 100.0 mg/kg/injection, schedule: Q01DX009 (ip), vehicle: Klucel (hydroxypropylcellulose) (HPC) 155 % of control and 185 % of control | endpoint: median survival time, dose: 200.0 mg/kg/injection, schedule: Q01DX009 (ip), vehicle: Klucel (hydroxypropylcellulose) (HPC) 172 % of control

N/C(=N/N=C/c1ccc(O)cc1)N[N+](=O)[O-]
inactive: endpoint: mean survival time, dose: 100.0 mg/kg/injection, schedule: Q04DX003 (ip), vehicle: Klucel (hydroxypropylcellulose) (HPC) 92 % of control | endpoint: mean survival time, dose: 200.0 mg/kg/injection, schedule: Q04DX003 (ip), vehicle: Klucel (hydroxypropylcellulose) (HPC) 86 % of control | endpoint: mean survival time, dose: 400.0 mg/kg/injection, schedule: Q04DX003 (ip), vehicle: Klucel (hydroxypropylcellulose) (HPC) 92 % of control
